Our source for the MIC values is ChEMBL document CHEMBL6134788, “Development of naphthalimide hydrazide derivatives as potent antibacterial agents against carbapenem-resistant A. baumannii” (RSC Med Chem, 2024).

Type in all cases: functional
What all share (details): time 16-18 hrs, read-out: MIC100

Experiment [1] has as its system Acinetobacter baumannii. Briefly: Antibacterial activity against carbapenem-resistant Acinetobacter baumannii BAA 1605 assessed as inhibition of bacterial growth incubated for 16 to 18 hrs by CLSI protocol based method.
The test system of experiment [2] is Acinetobacter baumannii. Briefly: Antibacterial activity against multi-drug resistant Acinetobacter baumannii H72721 assessed as inhibition of bacterial growth incubated for 16 to 18 hrs by CLSI protocol based method.
Experiment [3] concerns Acinetobacter baumannii. Briefly: Antibacterial activity against multi-drug resistant Acinetobacter baumannii clinical isolate 1 assessed as inhibition of bacterial growth incubated for 16 to 18 hrs by CLSI protocol based method.
Experiment [4] concerns Acinetobacter baumannii. Briefly: Antibacterial activity against multi-drug resistant Acinetobacter baumannii clinical isolate 2 assessed as inhibition of bacterial growth incubated for 16 to 18 hrs by CLSI protocol based method.
In experiment [5] the test system is Acinetobacter baumannii. The experiment is described as follows: Antibacterial activity against multi-drug resistant Acinetobacter baumannii clinical isolate 3 assessed as inhibition of bacterial growth incubated for 16 to 18 hrs by CLSI protocol based method.
Experiment [6] relates to Acinetobacter baumannii. Briefly: Antibacterial activity against multi-drug resistant Acinetobacter baumannii clinical isolate 4 assessed as inhibition of bacterial growth incubated for 16 to 18 hrs by CLSI protocol based method.
Experiment [7] deals with Acinetobacter baumannii. Briefly: Antibacterial activity against multi-drug resistant Acinetobacter baumannii clinical isolate 5 assessed as inhibition of bacterial growth incubated for 16 to 18 hrs by CLSI protocol based method.
The subject of experiment [8] is Acinetobacter baumannii. The experiment is described as follows: Antibacterial activity against multi-drug resistant Acinetobacter baumannii clinical isolate 6 assessed as inhibition of bacterial growth incubated for 16 to 18 hrs by CLSI protocol based method.
In experiment [9] the test system is Acinetobacter baumannii. The experiment is described as follows: Antibacterial activity against multi-drug resistant Acinetobacter baumannii clinical isolate 7 assessed as inhibition of bacterial growth incubated for 16 to 18 hrs by CLSI protocol based method.
Experiment [10] has as its system Acinetobacter baumannii. The experiment is described as follows: Antibacterial activity against multi-drug resistant Acinetobacter baumannii clinical isolate 8 assessed as inhibition of bacterial growth incubated for 16 to 18 hrs by CLSI protocol based method.
Experiment [11] relates to Acinetobacter baumannii. Briefly: Antibacterial activity against multi-drug resistant Acinetobacter baumannii clinical isolate 9 assessed as inhibition of bacterial growth incubated for 16 to 18 hrs by CLSI protocol based method.
Experiment [12] deals with Acinetobacter baumannii. The experiment is described as follows: Antibacterial activity against multi-drug resistant Acinetobacter baumannii clinical isolate 10 assessed as inhibition of bacterial growth incubated for 16 to 18 hrs by CLSI protocol based method.
Experiment [13] concerns Acinetobacter baumannii. The experiment is described as follows: Antibacterial activity against multi-drug resistant Acinetobacter baumannii clinical isolate 11 assessed as inhibition of bacterial growth incubated for 16 to 18 hrs by CLSI protocol based method.
Experiment [14] has as its system Acinetobacter baumannii. The experiment is described as follows: Antibacterial activity against multi-drug resistant Acinetobacter baumannii clinical isolate 12 assessed as inhibition of bacterial growth incubated for 16 to 18 hrs by CLSI protocol based method.
In experiment [15] the test system is Acinetobacter baumannii. Briefly: Antibacterial activity against multi-drug resistant Acinetobacter baumannii NR-17777 assessed as inhibition of bacterial growth incubated for 16 to 18 hrs by CLSI protocol based method.
The subject of experiment [16] is Acinetobacter baumannii. Briefly: Antibacterial activity against multi-drug resistant Acinetobacter baumannii 5-032 assessed as inhibition of bacterial growth incubated for 16 to 18 hrs by CLSI protocol based method.
Experiment [17] deals with Acinetobacter baumannii. Briefly: Antibacterial activity against multi-drug resistant Acinetobacter baumannii 5-109 assessed as inhibition of bacterial growth incubated for 16 to 18 hrs by CLSI protocol based method.
The test system of experiment [18] is Acinetobacter baumannii. Briefly: Antibacterial activity against multi-drug resistant Acinetobacter baumannii 5-143 assessed as inhibition of bacterial growth incubated for 16 to 18 hrs by CLSI protocol based method.
For experiment [19], the system named is Acinetobacter baumannii. The experiment is described as follows: Antibacterial activity against multi-drug resistant Acinetobacter baumannii 5-189 assessed as inhibition of bacterial growth incubated for 16 to 18 hrs by CLSI protocol based method.
In experiment [20] the test system is Acinetobacter baumannii. The experiment is described as follows: Antibacterial activity against multi-drug resistant Acinetobacter baumannii BC-5 assessed as inhibition of bacterial growth incubated for 16 to 18 hrs by CLSI protocol based method.
Experiment [21] deals with Acinetobacter baumannii. Briefly: Antibacterial activity against multi-drug resistant Acinetobacter baumannii Naval-17 assessed as inhibition of bacterial growth incubated for 16 to 18 hrs by CLSI protocol based method.
For experiment [22], the system named is Acinetobacter baumannii. Briefly: Antibacterial activity against multi-drug resistant Acinetobacter baumannii Naval-18 assessed as inhibition of bacterial growth incubated for 16 to 18 hrs by CLSI protocol based method.
In experiment [23] the test system is Acinetobacter baumannii. Briefly: Antibacterial activity against multi-drug resistant Acinetobacter baumannii Naval-81 assessed as inhibition of bacterial growth incubated for 16 to 18 hrs by CLSI protocol based method.
Experiment [24] has as its system Acinetobacter baumannii. Briefly: Antibacterial activity against multi-drug resistant Acinetobacter baumannii WL-136 assessed as inhibition of bacterial growth incubated for 16 to 18 hrs by CLSI protocol based method.
Experiment [25] has as its system Acinetobacter baumannii. The experiment is described as follows: Antibacterial activity against multi-drug resistant Acinetobacter baumannii WL-487 assessed as inhibition of bacterial growth incubated for 16 to 18 hrs by CLSI protocol based method.
Experiment [26] deals with Acinetobacter baumannii. The experiment is described as follows: Antibacterial activity against Acinetobacter baumannii ATCC 17978 assessed as inhibition of bacterial growth incubated for 16 to 18 hrs by CLSI protocol based method.
Experiment [27] has as its system Escherichia coli. Briefly: Antibacterial activity against Escherichia coli ATCC 25922 assessed as inhibition of bacterial growth incubated for 16 to 18 hrs by CLSI protocol based method.
In experiment [28] the test system is Staphylococcus aureus. Briefly: Antibacterial activity against Staphylococcus aureus ATCC 29213 assessed as inhibition of bacterial growth incubated for 16 to 18 hrs by CLSI protocol based method.
The test system of experiment [29] is Klebsiella pneumoniae. The experiment is described as follows: Antibacterial activity against Klebsiella pneumoniae BAA 1705 assessed as inhibition of bacterial growth incubated for 16 to 18 hrs by CLSI protocol based method.
For experiment [30], the system named is Pseudomonas aeruginosa. The experiment is described as follows: Antibacterial activity against Pseudomonas aeruginosa ATCC 27853 assessed as inhibition of bacterial growth incubated for 16 to 18 hrs by CLSI protocol based method.

Values after ≈ are worked out from the molar mass of the structure shown. Positions of bridges follow the written chain, without caps; N, C: chain ends. Non-standard residues stand in square brackets, D forms with d. Residues, ends and D or L forms follow the SMILES beside them. *: point of attachment. X1 = CC[C@H](C)CCCCC(=O)*; Dab = NCC[C@H](N)C(=O)O Bounds are passed on as bounds.

With `C[C@@H](O)[C@H]1C(=O)N2C(C(=O)O)=C(S[C@@H]3CN[C@H](C(=O)N(C)C)C3)[C@H](C)[C@H]12` [MEROPENEM], the MIC in [1] was 16 µg/mL (≈ 41.7 µM); in experiment [2], 32 µg/mL (≈ 83.4 µM); in experiment [3] it was 16 µg/mL (≈ 41.7 µM); in experiment [4], 32 µg/mL (≈ 83.4 µM); in experiment [5] it was 16 µg/mL (≈ 41.7 µM); in experiment [6], 32 µg/mL (≈ 83.4 µM). The MIC in experiment [7] is over 64 µg/mL; in experiment [8], over 64 µg/mL; in [9], 2 µg/mL (≈ 5.22 µM); in experiment [10], 64 µg/mL (≈ 167 µM); in experiment [11], over 64 µg/mL; in [12], 16 µg/mL (≈ 41.7 µM). In addition, the MIC in experiment [13] was 64 µg/mL (≈ 167 µM); in experiment [14], over 64 µg/mL; in experiment [15], 4 µg/mL (≈ 10.4 µM); in experiment [16], 4 µg/mL (≈ 10.4 µM); in experiment [17], 4 µg/mL (≈ 10.4 µM); in experiment [18], 8 µg/mL (≈ 20.9 µM). Besides, the MIC is 2 µg/mL (≈ 5.22 µM) in experiment [19]; over 64 µg/mL in experiment [20]; 4 µg/mL (≈ 10.4 µM) in experiment [21]; 64 µg/mL (≈ 167 µM) in experiment [22]; 4 µg/mL (≈ 10.4 µM) in experiment [23]; 2 µg/mL (≈ 5.22 µM) in experiment [24]. Also, the MIC in experiment [25] amounted to 1 µg/mL (≈ 2.61 µM); in experiment [26], 0.5 µg/mL (≈ 1.3 µM).
As to `Cc1ccc(NNC(=O)CCN2C(=O)c3cccc4cccc(c34)C2=O)cc1`, the MIC in [27] is over 64 µg/mL; in [28], over 64 µg/mL; in [29], over 64 µg/mL; in experiment [1] it was 4 µg/mL (≈ 10.7 µM); in experiment [30], over 64 µg/mL.
On to `O=C(CCCN1C(=O)c2cccc3cccc(c23)C1=O)NNc1ccccc1`, for which the MIC in experiment [27] is over 64 µg/mL; in [28], over 64 µg/mL; in experiment [29], over 64 µg/mL; in experiment [1], 4 µg/mL (≈ 10.7 µM); in experiment [30] it was over 64 µg/mL.
Regarding `N#Cc1ccc(NNC(=O)CN2C(=O)c3cccc4cccc(c34)C2=O)cc1`, the MIC is over 64 µg/mL in experiment [27]; over 64 µg/mL in experiment [28]; over 64 µg/mL in experiment [29]; 4 µg/mL (≈ 10.8 µM) in experiment [1]; over 64 µg/mL in [30].
With `CC(C)CCCCC(=O)N[C@@H](CCN)C(=O)N[C@H](C(=O)N[C@@H](CCN)C(=O)N[C@H]1CCNC(=O)[C@H]([C@@H](C)O)NC(=O)[C@H](CCN)NC(=O)[C@H](CCN)NC(=O)[C@H](CC(C)C)NC(=O)[C@@H](Cc2ccccc2)NC(=O)[C@H](CCN)NC1=O)[C@@H](C)O.CC[C@H](C)CCCCC(=O)N[C@@H](CCN)C(=O)N[C@H](C(=O)N[C@@H](CCN)C(=O)N[C@H]1CCNC(=O)[C@H]([C@@H](C)O)NC(=O)[C@H](CCN)NC(=O)[C@H](CCN)NC(=O)[C@H](CC(C)C)NC(=O)[C@@H](Cc2ccccc2)NC(=O)[C@H](CCN)NC1=O)[C@@H](C)O` (X1-[Dab]T[Dab][Dab][Dab][dF]L[Dab][Dab]T; lactam 4-C), the MIC in experiment [1], in experiment [2], in [3], in experiment [4], in experiment [5] and in experiment [6] was 0.25 µg/mL in each case. Moreover, the MIC in experiment [7] was determined as 0.25 µg/mL; in experiment [8], 0.25 µg/mL; in [9] it was 0.5 µg/mL; in experiment [10] it was 0.5 µg/mL; in [11] it was 0.5 µg/mL; in experiment [12], 0.25 µg/mL. Moreover, the MIC was found to be 0.25 µg/mL in experiment [13]; 0.25 µg/mL in experiment [14]; 0.25 µg/mL in experiment [15]; 0.125 µg/mL in [16]; 0.25 µg/mL in experiment [17]; 0.25 µg/mL in experiment [18]. The MIC turned out to be 0.25 µg/mL in experiment [19]; 0.25 µg/mL in experiment [20]; 0.25 µg/mL in experiment [21]; 0.25 µg/mL in experiment [22]; 0.125 µg/mL in experiment [23]; 0.25 µg/mL in [24]. In addition, the MIC came to 0.5 µg/mL in experiment [25] and 0.25 µg/mL in [26].
Regarding `O=C(CCN1C(=O)c2cccc3cccc(c23)C1=O)NNc1ccc([N+](=O)[O-])cc1`, the MIC in [27] was over 64 µg/mL; in [28] it was over 64 µg/mL; in experiment [29], over 64 µg/mL; in [1], 4 µg/mL (≈ 9.89 µM); in [30], over 64 µg/mL.
Regarding `CN(C)c1ccc(O)c2c1C[C@H]1C[C@H]3[C@H](N(C)C)C(O)=C(C(N)=O)C(=O)[C@@]3(O)C(O)=C1C2=O` [MINOCYCLINE], the MIC in [1] stood at 2 µg/mL (≈ 4.37 µM); in experiment [2], 2 µg/mL (≈ 4.37 µM); in experiment [3] it was 2 µg/mL (≈ 4.37 µM); in experiment [4], 2 µg/mL (≈ 4.37 µM); in [5], 1 µg/mL (≈ 2.19 µM); in experiment [6], 2 µg/mL (≈ 4.37 µM). The MIC worked out at 8 µg/mL (≈ 17.5 µM) in experiment [7]; 4 µg/mL (≈ 8.74 µM) in experiment [8]; 8 µg/mL (≈ 17.5 µM) in [9]; 4 µg/mL (≈ 8.74 µM) in [10]; 4 µg/mL (≈ 8.74 µM) in experiment [11]; 2 µg/mL (≈ 4.37 µM) in experiment [12]. In addition, the MIC in experiment [13] came out at 2 µg/mL (≈ 4.37 µM); in experiment [14] it was 4 µg/mL (≈ 8.74 µM); in experiment [15], 2 µg/mL (≈ 4.37 µM); in experiment [16], 0.25 µg/mL (≈ 0.546 µM); in [17], 2 µg/mL (≈ 4.37 µM); in experiment [18], 0.25 µg/mL (≈ 0.546 µM). The MIC is 8 µg/mL (≈ 17.5 µM) in experiment [19]; 2 µg/mL (≈ 4.37 µM) in [20]; 16 µg/mL (≈ 35 µM) in experiment [21]; 1 µg/mL (≈ 2.19 µM) in experiment [22]; 1 µg/mL (≈ 2.19 µM) in experiment [23]; 0.25 µg/mL (≈ 0.546 µM) in experiment [24]. Also, the figures for the MIC in [25] and in experiment [26] were 0.25 µg/mL (≈ 0.546 µM) and 0.125 µg/mL (≈ 0.273 µM), respectively.
